US5519028A, “Antiviral preparations” (priority 1992, dated 1996)
Entries after “also recorded” stand apart in the source; their conditions may differ. Like-named read-outs stand apart in the source and are kept apart here.

What was measured:
IL-1β [1] = experiment: IL-1β production by monocytes of HIV-positive donors; assay type: cell-based, human
Method: (§1) The effects of flavopereirine on the production of primary (IL-1β and TNF-α) and secondary (IL-6) cytokines by monocytes was also tested. The adhesive monocytes used were taken from the blood of two types of donors:
(§2) HIV-positive donors from medical consultations. These individuals were in the early stages of HIV infection and, at the moment of taking the blood, were not undergoing any treatment. The risk factors involved were intravenous drug abuse for six of the donors, sexual transmission for three and blood transfusion (in Zaire) for one patient. No correlation was found between the risk factors and the results of the experiments.
(§3) The response of the monocytes taken from the various HIV-positive donors was tested in terms of spontaneous response. The quantities of cells received were low (the donors were not affected by cytapheresy), and the experiments were therefore limited by the number of cells available.

interleukin-6 [2] = experiment: IL-6 production by monocytes of HIV-positive donors; assay type: cell-based, human
Method: as §1, §2, §3
Interleukin-4 was used at the same time as flavopereirine H, since it has been shown prior to these experiments that this cytokine blocks the spontaneous production of interleukin-6 in certain HIV-positive patients.
In five cases, […] was used for comparison, since this, too, blocks the production of IL-6 in normal monocytes stimulated by LPS.

HIV-1 TIG2 (HIV-1AIDS) [3] = experiment: HIV P24 production, target PBMC pretreated, isolate TIG2; assay type: cell-based; conditions: for Post-infection production of HIV P24: PBMC + 30 μg/ml 2 hours
Method: (§4) To test the efficacy of flavopereirine on the infectious capability of HIV-1, two experiments were conducted. […] After 2 hours of incubation, the cells were rinsed twice and cultivated in 1 ml of RPMI 1640 containing 20 IU of IL-2 per ml (Boehringer […], Germany), 2 μg of Polybrene (hexadimethrine bromide) per ml (Sigma, St. Louis, Mo., USA) and 10^-7 IU of goat antiserum acting against human alpha interferon (Janssen, Beerse, Belgium) per ml. Half the culture was changed after 72 hours, and thereafter every 48 hours until the 30th day. […] The surface material of the culture was tested by an immuno-enzymatic (ELISA) assay for the production of antigen P24 (Abbott, Chicago, Ill., USA) and the optical density (OD) of the resulting color was converted into P24 concentration from the slope of a standard nomogram, as described by W. Lu and J. -M. Andrieu, Journal of Virology, 66(1): 334-340 (1992).

HIV-1 BRE1 (HIV-1Asym.) [4] = experiment: HIV P24 production in PBMC, viral inoculum pretreated, isolate BRE1; assay type: cell-based; conditions: virus pretreated with 30 or 60 μg/ml
Method: as §4

IL-1β [5] = experiment: IL-1β production by monocytes of normal donors; assay type: cell-based, human
Method: as §1
Normal donors--voluntary blood donors who attended the blood bank of the Pitie-Salpetriere Hospital, Paris, France; and
(§5) Product H was not used in these experiments at a rate of more than 20 μg/ml water, since above this rate, net toxicity could have been produced.

HIV-1 [6] = experiment: microbe, parasite or virus in culture; conditions: Human immunodeficiency virus 1, PBMC, read-out: concentration totally inhibiting replication of HIV-1
[7] = Sub-chronic administration toxicity in rats; assay type: in vivo, male and female Sprague-Dawley rats (OPA); conditions: 530 and 2120 mg/kg/day
Text: No lesions of the liver, kidneys, duodenum, myocardia, spleen, thyroid and parathyroid glands, testicles or ovaries were visible by microscope.

H-9 cells = experiment: Multiplication of non-infected H-9 cells; assay type: cell-based; conditions: 30 and 60 μg/ml
human monocytes = experiment: Cytotoxicity in human monocytes; assay type: cell-based; conditions: four donors
Method: as §5

[8] = Cytotoxicity in human monocytes; assay type: cell-based; conditions: human, monocytes
Method: as §5

interleukin-6 [9] = experiment: IL-6 production by monocytes of normal donors; assay type: cell-based, human
Method: as §1
Normal donors--voluntary blood donors who attended the blood bank of the Pitie-Salpetriere Hospital, Paris, France; and […]

HIV-1 BRE1 (HIV-1Asym.) [10] = experiment: HIV P24 production, target PBMC pretreated, isolate BRE1; assay type: cell-based; conditions: for Post-infection production of HIV P24: PBMC + 30 μg/ml 2 hours
Method: as §4

HIV-1 TIG2 (HIV-1AIDS) [11] = experiment: HIV P24 production in PBMC, viral inoculum pretreated, isolate TIG2; assay type: cell-based; conditions: virus pretreated with 30 or 60 μg/ml
Method: as §4

[12] = Penetration of the blood-brain barrier (encephalic content); assay type: in vivo, male CDI mice; conditions: 10 mg orally
HIV-1 [13] = tested on: HIV-1
[14] = target PBMC pretreated with 60 μg/ml only

CCc1ccc2c3[nH]c4ccccc4c3cc[n+]2c1 [flavopereirine]
direct activity on base production of IL-1β (IL-1β [1]; HIV-positive donors): No modification on the base production was observed | indirect activity on production of interleukin-1 (IL-1β [1]; three dosages, p<0.05): absence of any impact on the production of interleukin-1 | effect on spontaneous production of IL-6 (interleukin-6 [2]; alone, dosage effect, never total, p<0.05, listed as Product H): inhibitory effect with a very clear dosage effect; also recorded: inhibited the spontaneous production of IL-6 shown in some HIV-positive patients | effect on spontaneous production of IL-6 with interleukin-4 (interleukin-6 [2]; in presence of interleukin-4, listed as product H): an amplification effect was almost always obtained | concentration for total disappearance of IL-6 production (interleukin-6 [2]; with interleukin-4, almost always (except case #4), p<0.05): 3 µg/mL | concentration for total disappearance of IL-6 production (often) (interleukin-6 [2]; with interleukin-4, often, p<0.05): 1 µg/mL | Post-infection production of HIV P24 (HIV-1 TIG2 (HIV-1AIDS) [3]; d3): 515 ± 103 pg/mL | Post-infection production of HIV P24 (HIV-1 TIG2 (HIV-1AIDS) [3]; d5): > 1500 pg/mL | inhibition of productive viral infections (HIV-1 TIG2 (HIV-1AIDS) [3]; [14]): complete inhibition of productive viral infections | infection of target PBMC (HIV-1 BRE1 (HIV-1Asym.) [4]): completely prevented the infection of target PBMC | direct activity on production of IL-1β (IL-1β [5]; donor #10, 10 and 20 μg/ml): responded very well | direct activity on production of IL-1β (IL-1β [5]; donors #3, 5 and 6, dose effect, marginal): Increase in the production of IL-1β | indirect activity on production of IL-1β (IL-1β [5]; response to LPS or IFN-γ+LPS, p<0.05): no significant modification | IC100 (HIV-1 [6]): 60 to 100 µg/mL | alteration in globular blood count [7]: Neither was any alteration in the globular blood count noted | alterations in body weight or feeding [7]: no alterations were noted in either body weight or feeding | hepatic and renal functions [7]: remained normal | lesions of liver, kidneys, duodenum, myocardia, spleen, thyroid, parathyroid, testicles, ovaries ([7]; microscope): No lesions | multiplication of non-infected cells (H-9 cells): does not affect the multiplication of non-infected cells | cytotoxicity (human monocytes; 30, 50, 100 μg/ml): virtually total cytotoxicity | cytotoxicity (human monocytes; above 30 μg/ml): 100 µg/mL | cytotoxicity ([8]; 30 μg/ml, four donors): > 40% | MCC ([8]; healthy and asymptomatic HIV-positive donors, read-out: toxic dosage on human monocytes in vitro): > 20 µg/mL | activity on cytokine production (interleukin-6 [9]; doses of less than 5 μg/ml, first two normal donors, cytokine not specified): inactive | direct activity on production of interleukin-6 (interleukin-6 [9]; normal donors): No modification in response was observed | indirect activity on production of IL-6 (interleukin-6 [9]; stimulated monocytes, dose-dependent, never total, P<0.05): sharp reduction in the production of IL-6 | Post-infection production of HIV P24 (HIV-1 BRE1 (HIV-1Asym.) [10]; d3): 113 ± 7 pg/mL | Post-infection production of HIV P24 (HIV-1 BRE1 (HIV-1Asym.) [10]; d5): > 1500 pg/mL | inhibition of productive viral infections (HIV-1 BRE1 (HIV-1Asym.) [10]; [14]): complete inhibition of productive viral infections | infection of target PBMC (HIV-1 TIG2 (HIV-1AIDS) [11]): completely prevented the infection of target PBMC | encephalic flavopereirine concentration ([12]; 20 g mice, brains 0.5 g): 14 µg/g | encephalic flavopereirine content ([12]; mice): approximately 7 μg | penetration of the blood-brain barrier ([12]; mice): observed to penetrate the blood-brain barrier | Production of P24 in HIV (HIV-1 [13]; 50% AB serum, 10 μg/ml 2 hrs, d4): 384 ± 83 pg/mL | Production of P24 in HIV (HIV-1 [13]; 50% AB serum, 10 μg/ml 2 hrs, d10): > 1500 pg/mL | Production of P24 in HIV (HIV-1 [13]; 50% AB serum, 30 μg/ml 2 hrs, d4): 275 ± 98 pg/mL | Production of P24 in HIV (HIV-1 [13]; 50% AB serum, 30 μg/ml 2 hrs, d10): > 1500 pg/mL | efficacy on inhibition of wild HIV-1 in human serum (HIV-1 [13]; 50% human serum): remained unchanged | influence of constituents of human serum (HIV-1 [13]; HIV-1 inhibition at non-cytotoxic concentrations): did not appear to be influenced by the constituents of the human serum | Production of P24 in HIV (HIV-1 [13]; no serum, 10 μg/ml 2 hrs, d4): 388 ± 124 pg/mL | Production of P24 in HIV (HIV-1 [13]; no serum, 10 μg/ml 2 hrs, d10): > 1500 pg/mL | Production of P24 in HIV (HIV-1 [13]; no serum, 30 μg/ml 2 hrs, d4): 173 ± 102 pg/mL | Production of P24 in HIV (HIV-1 [13]; no serum, 30 μg/ml 2 hrs, d10): > 1500 pg/mL
